Assays:
[1] = system: ATCC strain 43300 Staphylococcus aureus; experiment: MSM alone, MRSA survival (Example 1); conditions: 5-16% MSM alone, no antibiotic, 24 or 48 hour
Description: (§1) USP<51> Antimicrobial Effectiveness protocol was used as the template experimental paradigm. […] All concentrations were plated out to the 10^−7 dilutions to ascertain cfu/ml.
Material was calculated on a 10 ml volume.
All tubes were inoculated with a dilution of MRSA giving a final level of colony forming units of 2.0×10^5/ml (Log=5.23). The tubes were incubated at 25° C. and mixed periodically. Plating was done at 24 and 48 hours. Each condition was plated by diluting 1 ml of growth material into 9 ml of MLB diluent broth. This mixture was serial diluted down to 10^−7, and 1 ml placed in a sterile petri dish at each dilution point. 20 mls of TSA was added to each dilution, swirled and allowed to solidify. All dilutions were placed in a 35° C. incubator for 24 hours. Bacterial colonies on each plate were counted and colony counts changed into log format. A positive and negative control was ascertained.

[2] = system: ATCC strain 43300 Staphylococcus aureus; experiment: MRSA survival in MSM and 6 μg/ml oxacillin or methicillin, 24, 48, 120 hours (Example 4)
Description: The growth periods tested were 24 hours, 48 hours and 5 days.
as §1
Material was calculated on a 10 ml volume. Sterile oxacillin or methicillin was added to each experimental condition daily at 300 μl from a 30 mg/10 ml concentration giving it an initial final concentration of 6 μg/ml.
All tubes were inoculated with a dilution of MRSA giving a final level of colony forming units of 2.13×10^6/ml (Log=6.3). The tubes were incubated at 25° C. and mixed periodically. Plating was done at 24 hours, 48 hours and 5 days. Each condition was plated by diluting 1 ml of growth material into 9 ml of MLB diluent broth. This mixture was serial diluted down to 10^−7, and 1 ml placed in a sterile petri dish at each dilution point. 20 mls of TSA was added to each dilution, swirled and allowed to solidify. All dilutions were placed in a 35° C. incubator for 24 hours. Bacterial colonies on each plate were counted and colony counts changed into log format. A positive and negative control was ascertained.

[3] = system: ATCC strain 43300 Staphylococcus aureus; experiment: MRSA survival in MSM and oxacillin, simulated course of treatment (Example 3); conditions: 6 μg/ml oxacillin added daily + MSM (% in label), 48 hours, inoculum Log=5.96
Description: After 24 hours, another 6 μg/ml oxacillin was added to the incubations, bringing the total amount of oxacillin added to 12 μg/ml. […] This experimental paradigm simulates the repeated application of antibiotic that a subject would receive over a course of treatment.
USP<51> Antimicrobial Effectiveness protocol was used as the template experimental paradigm. […] All concentrations were plated out to the 10^−7 dilutions to ascertain cfu/ml. […] This concentration is the industry standard for determining MRSA resistance in clinical applications. An additional 6 μg/ml oxacillin was added daily.
Material was calculated on a 10 ml volume. Sterile oxacillin was added to each experimental condition daily at 300 μl from a 30 mg/10 ml concentration giving it a final concentration of 6 μg/ml.
All tubes were inoculated at a dilution of MRSA giving a final concentration of colony forming units of 9.14×10^5/ml (Log=5.96). The tubes were incubated at 25° C. and mixed periodically. Plating was done at 48 hours and 7 days. […] These were serial diluted down to 10^−7 with 1 ml placed in a sterile petri dish at each dilution point. 20 mls of TSA was added to each dilution and swirled and allowed to solidify. All dilutions were placed in a 35° C. incubator for 24 hours. Plates were counted and colony counts changed into log format. A positive and negative control was ascertained.

[4] = 6 μg/ml methicillin + MSM (initial % in label), 48 hours, listed as 5% MSM
[5] = 6 μg/ml methicillin + MSM (initial % in label), 48 hours, listed as 16% MSM
[6] = 6 μg/ml oxacillin + MSM (initial % in label), 48 hours, listed as 8% MSM
[7] = 6 μg/ml oxacillin + MSM (initial % in label), 48 hours, listed as 16% MSM

CS(C)(=O)=O [MSM, Methylsulfonylmethane]
effect on survival [1]: none of the concentrations of MSM tested had any effect on the survival
survival (Log cfu/ml) ([2]; 6 μg/ml methicillin + MSM (initial % in label), 48 Hours, listed as 8% MSM): 3.60 Log cfu/ml
survival (Log cfu/ml) ([2]; 6 μg/ml methicillin + MSM (initial % in label), 48 Hours, listed as 10% MSM): 3.70 Log cfu/ml
survival (Log cfu/ml) ([2]; 6 μg/ml methicillin + MSM (initial % in label), 48 Hours, listed as 12% MSM): 3.70 Log cfu/ml
survival (Log cfu/ml) ([2]; 6 μg/ml methicillin + MSM (initial % in label), 48 Hours, listed as 13% MSM): 3.90 Log cfu/ml
survival (Log cfu/ml) ([2]; 6 μg/ml methicillin + MSM (initial % in label), 48 Hours, listed as 14% MSM): 3.98 Log cfu/ml
survival (Log cfu/ml) ([2]; 6 μg/ml methicillin + MSM (initial % in label), 48 Hours, listed as 15% MSM): 4.00 Log cfu/ml
survival (Log cfu/ml) ([2]; 6 μg/ml methicillin + MSM (initial % in label), 24 hours, 3.5% MSM and antibiotic added daily, inoculum Log=6.3): 4.30 Log cfu/ml
survival (Log cfu/ml) ([2]; 6 μg/ml methicillin + MSM (initial % in label), 24 hours, 3.5% MSM and antibiotic added daily, inoculum Log=6.3, listed as 8% MSM): 4.50 Log cfu/ml
survival (Log cfu/ml) ([2]; 6 μg/ml methicillin + MSM (initial % in label), 24 hours, 3.5% MSM and antibiotic added daily, inoculum Log=6.3, listed as 10% MSM): 4.40 Log cfu/ml
survival (Log cfu/ml) ([2]; 6 μg/ml methicillin + MSM (initial % in label), 24 hours, 3.5% MSM and antibiotic added daily, inoculum Log=6.3, listed as 12% MSM): 4.60 Log cfu/ml
survival (Log cfu/ml) ([2]; 6 μg/ml methicillin + MSM (initial % in label), 24 hours, 3.5% MSM and antibiotic added daily, inoculum Log=6.3, listed as 13% MSM): 4.90 Log cfu/ml
survival (Log cfu/ml) ([2]; 6 μg/ml methicillin + MSM (initial % in label), 24 hours, 3.5% MSM and antibiotic added daily, inoculum Log=6.3, listed as 14% MSM): 4.90 Log cfu/ml
survival (Log cfu/ml) ([2]; 6 μg/ml methicillin + MSM (initial % in label), 24 hours, 3.5% MSM and antibiotic added daily, inoculum Log=6.3, listed as 15% MSM): 5.00 Log cfu/ml
survival (Log cfu/ml) ([2]; 6 μg/ml methicillin + MSM (initial % in label), 24 hours, 3.5% MSM and antibiotic added daily, inoculum Log=6.3, listed as 16% MSM): 5.00 Log cfu/ml
average log reduction in cfu/ml [2, 4]: 2.7 log
survival (Log cfu/ml) [2, 4]: 3.60 Log cfu/ml
average log reduction in cfu/ml [2, 5]: 2.1 log
survival (Log cfu/ml) [2, 5]: 4.17 Log cfu/ml
survival (Log cfu/ml) ([2]; 6 μg/ml methicillin + MSM (initial % in label), 120 hours, listed as 5% MSM): TNTC
survival (Log cfu/ml) ([2]; 6 μg/ml methicillin + MSM (initial % in label), 120 hours, listed as 8% MSM): TNTC
survival (Log cfu/ml) ([2]; 6 μg/ml methicillin + MSM (initial % in label), 120 hours, listed as 10% MSM): TNTC
survival (Log cfu/ml) ([2]; 6 μg/ml methicillin + MSM (initial % in label), 120 hours, listed as 12% MSM): 4.20 Log cfu/ml
survival (Log cfu/ml) ([2]; 6 μg/ml methicillin + MSM (initial % in label), 120 hours, listed as 13% MSM): 2.80 Log cfu/ml
survival (Log cfu/ml) ([2]; 6 μg/ml methicillin + MSM (initial % in label), 120 hours, listed as 14% MSM): 2.90 Log cfu/ml
survival (Log cfu/ml) ([2]; 6 μg/ml methicillin + MSM (initial % in label), 120 hours, listed as 15% MSM): 2.80 Log cfu/ml
survival (Log cfu/ml) ([2]; 6 μg/ml methicillin + MSM (initial % in label), 120 hours, listed as 16% MSM): 2.80 Log cfu/ml
Log reduction in cfu/ml ([2]; 6 μg/ml methicillin + initial 13-16% MSM, 120 hours): ~3.5 log
survival (Log cfu/ml) ([2]; 6 μg/ml oxacillin + MSM (initial % in label), 48 Hours, listed as 5% MSM): 5.20 Log cfu/ml
survival (Log cfu/ml) ([2]; 6 μg/ml oxacillin + MSM (initial % in label), 48 Hours, listed as 10% MSM): 4.20 Log cfu/ml
survival (Log cfu/ml) ([2]; 6 μg/ml oxacillin + MSM (initial % in label), 48 Hours, listed as 12% MSM): 4.30 Log cfu/ml
survival (Log cfu/ml) ([2]; 6 μg/ml oxacillin + MSM (initial % in label), 48 Hours, listed as 13% MSM): 4.20 Log cfu/ml
survival (Log cfu/ml) ([2]; 6 μg/ml oxacillin + MSM (initial % in label), 48 Hours, listed as 14% MSM): 4.40 Log cfu/ml
survival (Log cfu/ml) ([2]; 6 μg/ml oxacillin + MSM (initial % in label), 48 Hours, listed as 15% MSM): 4.40 Log cfu/ml
survival (Log cfu/ml) ([2]; 6 μg/ml oxacillin + MSM (initial % in label), 24 hours, listed as 5% MSM): 4.90 Log cfu/ml
survival (Log cfu/ml) ([2]; 6 μg/ml oxacillin + MSM (initial % in label), 24 hours, listed as 8% MSM): 5.00 Log cfu/ml
survival (Log cfu/ml) ([2]; 6 μg/ml oxacillin + MSM (initial % in label), 24 hours, listed as 10% MSM): 5.00 Log cfu/ml
survival (Log cfu/ml) ([2]; 6 μg/ml oxacillin + MSM (initial % in label), 24 hours, listed as 12% MSM): 5.20 Log cfu/ml
survival (Log cfu/ml) ([2]; 6 μg/ml oxacillin + MSM (initial % in label), 24 hours, listed as 13% MSM): 5.00 Log cfu/ml
survival (Log cfu/ml) ([2]; 6 μg/ml oxacillin + MSM (initial % in label), 24 hours, listed as 14% MSM): 5.20 Log cfu/ml
survival (Log cfu/ml) ([2]; 6 μg/ml oxacillin + MSM (initial % in label), 24 hours, listed as 15% MSM): 5.23 Log cfu/ml
survival (Log cfu/ml) ([2]; 6 μg/ml oxacillin + MSM (initial % in label), 24 hours, listed as 16% MSM): 5.25 Log cfu/ml
average log reduction in cfu/ml [2, 6]: 2.7 log
survival (Log cfu/ml) [2, 6]: 3.60 Log cfu/ml
average log reduction in cfu/ml [2, 7]: 2.1 log
survival (Log cfu/ml) [2, 7]: 4.17 Log cfu/ml
survival (Log cfu/ml) ([2]; 6 μg/ml oxacillin + MSM (initial % in label), 120 hours, listed as 5% MSM): TNTC
survival (Log cfu/ml) ([2]; 6 μg/ml oxacillin + MSM (initial % in label), 120 hours, listed as 8% MSM): TNTC
survival (Log cfu/ml) ([2]; 6 μg/ml oxacillin + MSM (initial % in label), 120 hours, listed as 10% MSM): TNTC
survival (Log cfu/ml) ([2]; 6 μg/ml oxacillin + MSM (initial % in label), 120 hours, listed as 12% MSM): TNTC
survival (Log cfu/ml) ([2]; 6 μg/ml oxacillin + MSM (initial % in label), 120 hours, listed as 13% MSM): TNTC
survival (Log cfu/ml) ([2]; 6 μg/ml oxacillin + MSM (initial % in label), 120 hours, listed as 14% MSM): 3.00 Log cfu/ml
survival (Log cfu/ml) ([2]; 6 μg/ml oxacillin + MSM (initial % in label), 120 hours, listed as 15% MSM): 3.00 Log cfu/ml
survival (Log cfu/ml) ([2]; 6 μg/ml oxacillin + MSM (initial % in label), 120 hours, listed as 16% MSM): 3.00 Log cfu/ml
Log reduction in cfu/ml ([2]; 6 μg/ml oxacillin + initial 14-16% MSM, 120 hours): ~3.3 log
survival (Log cfu/ml) ([3]; listed as 5% MSM): 7.0 Log cfu/ml
survival (Log cfu/ml) ([3]; listed as 8% MSM): 4.0 Log cfu/ml
survival (Log cfu/ml) ([3]; listed as 10% MSM): 4.6 Log cfu/ml
survival (Log cfu/ml) ([3]; listed as 12% MSM): 3.8 Log cfu/ml
survival (Log cfu/ml) ([3]; listed as 13% MSM): 3.8 Log cfu/ml
survival (Log cfu/ml) ([3]; listed as 14% MSM): 4.0 Log cfu/ml
